These are literature values, as cited in patent US12577179B2, “Methods and compositions for soil regeneration and improved soil hydrology” (Locus Solutions IPCo, LLC, priority 2021, dated 2026).

The conditions of the series: surfactant micelles; no method or source given.

As for `CCCCCCCC/C=C\CCCCCCCC(=O)OCCOCC(OCCO)C1OCC(OCCO)C1OCCO` (stereo not shown) [Tween-80], the micelle size is given as 11.7 nm.
`CCCCCCCCCCCCOS(=O)(=O)[O-].[Na+]` [sodium dodecyl sulfate]: the micelle size was 3.5-6 nm.
Consider Nonidet P40, for which the micelle size is on record as 15.4 nm.
In the case of Triton X-100, the micelle size is given as 7.5 nm.
